Results from patent US20260207450A1, “ANTI-DANDRUFF COMPOSITIONS” (Firmenich SA, priority 2022, published 2026).
In brackets after ≈: the same amount, converted by molar mass.

Experiments:
[1] = tested on: Staphylococcus aureus ATCC 6538; experiment: MIC assay on Staphylococcus aureus ATCC 6538; type: cell-based; settings: Staphylococcus aureus, ATCC6538; TSB, 37° C., 24 h aerobically; dilutions 29 to 10000 ppm; read-out: MIC (ppm) S. aureus
Description: MIC assay for Staphylococcus aureus ATCC 6538 is based on Clinical Laboratory Standard Institute: CLSI/NCCLS M07-A8. Cell suspension of working cultures of S. aureus was prepared following the instructions of culture provider ATCC, USA.
(§1) A total of 26 perfumery materials were examined for an inhibition effect on Malassezia furfur and Staphylococcus aureus.

[2] = tested on: Malassezia furfur DSM 6170; experiment: MIC assay on Malassezia furfur DSM 6170 (resazurin); type: cell-based; settings: Malassezia furfur, DSM6170; 30° C., 48 h aerobically; dilutions 29 to 10000 ppm
Description: The MIC assay for Malassezia furfur DSM 6170 was modified based on the method in Journal of Clinical Microbiology 2017, Vol 55: 1883-1893. In brief, working culture was prepared from stock cultures stored at −80° C. to obtain a cell suspension as the inoculum. Serial dilutions of samples, 29 to 10000 ppm, were tested to determine the MIC values for growth of Malassezia furfur DSM 6170 after at 30° C. for 48 h aerobically. Resazurin was used as growth indicator.
as §1

M. furfur DSM 6170 [3] = experiment: Disc-diffusion assay, perfumery materials in DMSO, M. furfur; type: cell-based, Malassezia furfur; settings: Malassezia furfur, DSM6170, 72 h
Description: (§2) Anti-Malassezia effect of perfumery materials in solvent in DMSO was determined using disc-diffusion assay, based on the method of J Mycol Infect 2018: 23: 91-98. In brief, working cultures of Malassezia strains were prepared from −80 C stock culture on mDixon agar plate (for M. furfur DSM 6170) or mLN agar plate (for M. restricta ATCC MYA-4611 and M. globosa ATCC MYA-4612), and cells were suspended in 0.9% saline, and spread onto mDixon or mLN agar surface to prepare lawn plate. Test samples solutions are prepared in DMSO to final concentrations of 0.2%, 1% or 2%. Discs (Whatman, 6 mm in diameter) were placed on inoculated agar plates with each Malassezia strains respectively, including M. furfur DSM 6170, M. restricta ATCC MYA-4611, and M. globosa ATCC MYA-4612. Aliquots (20 μL) of each sample solution was added to each disc. Agar plates were incubated at 30° C. for 3 days for M. furfur DSM 6170, and 6 days for M. restricta ATCC MYA-4611, and M. globosa ATCC MYA-4612. After incubation, diameters of the clear inhibition zones around the discs were measured. Inhibition zone greater than 6 mm are regarded as having anti-Malassezia effect.

[4] = tested on: M. restricta ATCC MYA-4611; experiment: Disc-diffusion assay, perfumery materials in DMSO, M. restricta; type: cell-based, Malassezia restricta; settings: Malassezia restricta, 144 h
Description: as §2

M. globosa ATCC MYA-4612 [5] = experiment: Disc-diffusion assay, perfumery materials in DMSO, M. globosa; type: cell-based, Malassezia globosa; settings: Malassezia globosa, 144 h
Description: as §2

M. furfur DSM 6170 [6] = experiment: Disc-diffusion assay, (2E,6Z)-2,6-nonadienal with anti-dandruff actives in DMSO, M. furfur; type: cell-based, Malassezia furfur; settings: 3 days
Description: The anti-Malassezia effect of perfumery materials in combination of anti-dandruff actives using the disk-diffusion assay, modified based on the method of J Mycol Infect 2018; 23: 91-98. working culture of M. furfur DSM 6170 was prepared from −80 C stock culture on mDixon agar plate, and cells were suspended in 0.9% saline, and spread onto mDixon agar surface to prepare lawn plates. Discs (Whatman, 6 mm in diameter) were placed on inoculated mDixon agar plates. Test sample solutions are prepared in DMSO. Aliquots (20 μL) of each sample solution was added to each disc. Agar plates were incubated at 30° C. for 3 days. After incubation, diameters of the clear inhibition zones around the discs were measured.

[7] = tested on: M. restricta ATCC MYA-4611; experiment: Disc-diffusion assay, perfumery materials in Shampoo Base B, M. restricta; type: cell-based, Malassezia restricta; settings: 0.25% perfumery material in 25% Shampoo Base B solution, 6 mm disc, 6 days
Text: (§3) The present inventors sought to investigate how whether the anti-dandruff effect of compounds and compositions could be used in shampoo formulations. For this reason, they prepared two shampoo bases. Shampoo Base A is a composition with Sodium Laureth Sulfate and cocamidopropyl betaine as the primary ingredients, while Shampoo Base B is a composition with Ammonium Lauryl Sulfate and Ammonium Laureth Sulfate as primary ingredients. Anti-Malassezia effect of perfumery materials in shampoo was determined using disc-diffusion assay, based on the method of J Mycol Infect 2018; 23: 91-98. […] Aliquots (20 μL) of each sample solution was added to each disc. Agar plates were incubated at 30° C. for 6 days. After incubation, diameters of the clear inhibition zones around the discs were measured.

M. globosa ATCC MYA-4612 [8] = experiment: Disc-diffusion assay, perfumery materials in Shampoo Base B, M. globosa; type: cell-based, Malassezia globosa; settings: 0.25% perfumery material in 25% Shampoo Base B solution, 6 mm disc, 6 days
Text: as §3

M. restricta = experiment: Disc-diffusion assay, combinations with piroctone olamine (PO) in DMSO, M. restricta; type: cell-based, Malassezia restricta; settings: 4 days, ratio greater than 1.0 = boosting effect
Description: Anti-Malassezia effect of combinations of PO and perfumery materials in solvent DMSO against M. restricta was determined using disc-diffusion assay as described above. Aliquots (20 μL) of each sample solution was added to each disc. Agar plates were incubated at 30° C. for 4 days. After incubation, diameters of the clear inhibition zones around the discs were measured. Ratio of inhibition zone diameter of each combination to that of PO only were calculated. […] Anti-Malassezia effect of combinations of PO and perfumery raw materials mixtures in solvent DMSO was determined using disc-diffusion assay, as described above. Aliquots (20 μL) of each sample solution was added to each disc. Agar plates were incubated at 30° C. for 4 days. After incubation, diameters of the clear inhibition zones around the discs were measured. Ratio of inhibition zone diameter of each combination to that of PO only were calculated.

[9] = tested on: M. restricta ATCC MYA-4611; experiment: Cylinder diffusion assay, hair conditioner base with 0.35% PO and mixtures, M. restricta; type: cell-based, Malassezia restricta; settings: conditioner containing 0.35% PO without mixture; 25% conditioner solution, 80 μL cylinder, 4 days
Description: A hair conditioner base was prepared. The main components included water, cetyl alcohol, MIRASIL® ADME-NP (water (and) amodimethicone (and) trideceth-6), stearyl alcohol, behentrimonium methosulfate (and) Isopropanol.
Anti-Malassezia effect of hair conditioners was determined using cylinder diffusion assay that was used for testing shampoos, as described above. In brief, working cultures of M. restricta ATCC MYA-4611 and inoculated as described in disc diffusion assay. Cylinders were placed on inoculated agar plates. Aliquots (80 μL) of each sample (25% conditioner solution) were added to each cylinder. Agar plates were incubated at 30° C. for 4 days. After incubation, diameters of the clear inhibition zones around the discs were measured.

CC/C=C\CC/C=C/C=O [(2E,6Z)-2,6-nonadienal]
MIC [1]: 233 mg/L (≈ 1690 µM) | MIC [2]: 44 mg/L (≈ 318 µM) | zone of inhibition at 2 % (M. furfur DSM 6170 [3]): 13.5 mm | zone of inhibition at 0.2 % [4]: 7.7 mm | zone of inhibition at 1 % [4]: > 40 mm | zone of inhibition at 2 % [4]: > 40 mm | zone of inhibition at 0.2 % (M. globosa ATCC MYA-4612 [5]): 12.4 mm | zone of inhibition at 1 % (M. globosa ATCC MYA-4612 [5]): > 40 mm | Inhibition zone (mm) on M. furfur (M. furfur DSM 6170 [6]; Table 5, 0.75% in DMSO, 6 mm disc): 7.6 mm | Inhibition zone (mm) on M. furfur (M. furfur DSM 6170 [6]; Table 6, 1% in DMSO): 11.4 mm | Inhibition zone (mm) on M. furfur (M. furfur DSM 6170 [6]; Table 7, 1% in DMSO): 14.1 mm | Inhibition zone (mm) M. restricta [7]: 11.1 mm | Inhibition zone (mm) M. globosa (M. globosa ATCC MYA-4612 [8]): 12.8 mm | Ratio of inhibition zone diameter (0.2% PRM + 0.1% PO) to 0.1% PO (M. restricta): 1.2 | Ratio of inhibition zone diameter (0.5% PRM + 0.1% PO) to 0.1% PO (M. restricta): 3.4

CCCc1cccc(O)c1 [3-propylphenol]
Inhibition zone (mm) M. restricta [7]: 7.7 mm | Inhibition zone (mm) M. globosa (M. globosa ATCC MYA-4612 [8]): 10.2 mm

Cc1cc(CC(C)CC(C)(C)C)n(O)c(=O)c1.NCCO (centres unmarked) [Piroctone Olamine (PO), Piroctone Olamine]
Inhibition zone (mm) on M. furfur (M. furfur DSM 6170 [6]; Table 5, 0.19% in DMSO, 6 mm disc): 11.8 mm | Inhibition zone diameter (mm) against M. restricta [9]: No inhibition zone

CCCCCCCCC/C=C/C=O [(2E)-2-dodecenal]
MIC [1]: 49 mg/L (≈ 269 µM) | MIC [2]: 148 mg/L (≈ 812 µM) | zone of inhibition at 2 % (M. furfur DSM 6170 [3]): 12.6 mm | zone of inhibition at 0.2 % [4]: 10 mm | zone of inhibition at 1 % [4]: 14.4 mm | zone of inhibition at 2 % [4]: 18.1 mm | zone of inhibition at 1 % (M. globosa ATCC MYA-4612 [5]): 15.2 mm | zone of inhibition at 2 % (M. globosa ATCC MYA-4612 [5]): 17.9 mm | Ratio of inhibition zone diameter (0.5% PRM + 0.1% PO) to 0.1% PO (M. restricta): 2.1 | Ratio of inhibition zone diameter (1% PRM + 0.35% PO) to 0.35% PO (M. restricta): 1.2

CC(=O)N1CCN(c2ccc(OCC3COC(Cn4ccnc4)(c4ccc(Cl)cc4Cl)O3)cc2)CC1 (centres unmarked) [ketoconazole]
Inhibition zone (mm) on M. furfur (M. furfur DSM 6170 [6]; Table 7, 0.1% in DMSO): 22.3 mm | Inhibition zone (mm) on M. furfur (M. furfur DSM 6170 [6]; Table 7, 0.2% in DMSO): 24.6 mm | Inhibition zone (mm) on M. furfur (M. furfur DSM 6170 [6]; Table 7, 0.3% in DMSO): 24.5 mm | Inhibition zone (mm) on M. furfur (M. furfur DSM 6170 [6]; Table 7, 0.4% in DMSO): 24.9 mm

C/C(=C\c1ccc(C)cc1)CCC=O [(4E)-4-methyl-5-(4-methylphenyl)-4-pentenal]
MIC [1]: 75 mg/L (≈ 398 µM) | MIC [2]: 333 mg/L (≈ 1770 µM) | zone of inhibition at 2 % (M. furfur DSM 6170 [3]): 7.5 mm | zone of inhibition at 0.2 % [4]: 6.8 mm | zone of inhibition at 1 % [4]: 11.6 mm | zone of inhibition at 2 % [4]: 12 mm | zone of inhibition at 1 % (M. globosa ATCC MYA-4612 [5]): 9 mm | zone of inhibition at 2 % (M. globosa ATCC MYA-4612 [5]): 10.5 mm | Ratio of inhibition zone diameter (0.5% PRM + 0.1% PO) to 0.1% PO (M. restricta): 1.2

C=CCc1ccc(O)c(OC)c1 [2-methoxy-4-(2-propen-1-yl)phenol]
Inhibition zone (mm) M. restricta [7]: 7.3 mm | Inhibition zone (mm) M. globosa (M. globosa ATCC MYA-4612 [8]): 8.2 mm
